These results are taken from ChEMBL document CHEMBL1201862, “PubChem BioAssay data set” (2004).

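A five-concentration, 48-hour dose response in 96-well plates underlies each endpoint, interpolated linearly between surrounding concentrations. GI50 = concentration required for 50% inhibition of growth.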 Active and inactive are the calls of the source. Rule as the data show it: active = GI50 up to about 1.1 µM and inactive = higher.

Test systems include RXF 631; SNB-78; KM-20L2; DMS-114; XF498; LXFL 529; DLD-1; DMS-273; HOP-18.
Test in all cases: NCI-60 cell line screen, 48 h

With `NC(=S)N/N=C(/CC(=O)c1ccc([N+](=O)[O-])cc1)C(=O)Nc1ncc([N+](=O)[O-])s1`, the GI50 was > 100 µM (inactive) in the assay with RXF 631; > 100 µM (inactive) with SNB-78; > 100 µM (inactive) in the assay with KM-20L2; 68.1 µM (inactive) in the assay with DMS-114; > 100 µM (inactive) with XF498; 92.5 µM (inactive) in the assay with LXFL 529. For the same compound, the GI50 in the assay with DLD-1 is > 100 µM (inactive).

Take `O=C(O)c1cc(=O)c2c([nH]c3ccccc32)s1`: the GI50 with RXF 631, with SNB-78, in the assay on KM-20L2, in the assay with DMS-114, with XF498 and in the assay on LXFL 529 was > 100 µM (inactive) throughout. Besides, in the assay on DLD-1, the GI50 is > 100 µM (inactive).

Consider `COc1cc(OC)cc(C(=O)Cc2c(C(=O)c3ccccc3)c3ccccc3n2C(=O)c2ccccc2)c1`, for which the GI50 with SNB-78 is 38.3 µM (inactive); in the assay on KM-20L2, 50.6 µM (inactive); in the assay with DMS-273, 27.4 µM (inactive); in the assay on DMS-114 it was 15.5 µM (inactive); in the assay with XF498, 21.4 µM (inactive); in the assay on LXFL 529, 9.95 µM (inactive). Moreover, the GI50 in the assay on DLD-1 is 20.3 µM (inactive).

Turning to `N#Cc1ccc(C2OCC3CC=CCC3CO2)cc1` (centres undefined), the GI50 was > 100 µM (inactive) in the assay on HOP-18; 41.7 µM (inactive) in the assay on RXF 631; > 100 µM (inactive) in the assay with SNB-78; > 100 µM (inactive) in the assay with KM-20L2; 61.7 µM (inactive) in the assay on DMS-114; > 100 µM (inactive) with XF498. In addition, the GI50 with LXFL 529 was 47.1 µM (inactive); in the assay with DLD-1 it was 55 µM (inactive).

Take `Nc1nc(-c2ccccc2)cc(-c2cc(Cl)ccc2O)n1`: the GI50 in the assay on HOP-18 was > 100 µM (inactive); with RXF 631, > 100 µM (inactive); in the assay on SNB-78, > 100 µM (inactive); with KM-20L2 it was > 100 µM (inactive); with DMS-273, 44.7 µM (inactive); with DMS-114, 55.6 µM (inactive). For the same compound, the GI50 with LXFL 529 is 48.3 µM (inactive); in the assay on DLD-1 it was 98.2 µM (inactive).

As to `C1CCN(c2nsc(N3CCCCC3)n2)CC1`, the GI50 in the assay with HOP-18, in the assay on RXF 631, in the assay on SNB-78, in the assay on KM-20L2, in the assay with DMS-273 and in the assay on DMS-114 was > 100 µM (inactive) throughout. In addition, the GI50 in the assay with LXFL 529 and in the assay on DLD-1 was > 100 µM (inactive) throughout.

As for `CC1=CCC2(C#N)CCC1C2=O` (centres undefined), the GI50 with RXF 631, in the assay with SNB-78, in the assay on KM-20L2, in the assay on DMS-114, in the assay on XF498 and with LXFL 529 was > 100 µM (inactive) in each case. For the same compound, the GI50 with DLD-1 is > 100 µM (inactive).

Turning to `Cc1cc(N(CCOS(C)(=O)=O)CCOS(C)(=O)=O)ccc1/C=N/c1ccc(-c2nc(Cc3ccccc3)sc2C)cc1`, the GI50 in the assay on HOP-18 is 6.64 µM (inactive); with SNB-78, 32.9 µM (inactive); in the assay with KM-20L2 it was 7.19 µM (inactive); with DMS-273, 1.87 µM (inactive); in the assay on DMS-114, 7.91 µM (inactive); in the assay with XF498 it was 2.26 µM (inactive). In addition, the results for the GI50 in the assay on LXFL 529 and in the assay with DLD-1 were 16.6 µM (inactive) and 12.8 µM (inactive), respectively.

In the case of `COc1ccc(CCCN2c3ccccc3Sc3ccccc32)cc1`, the GI50 in the assay with HOP-18 is > 100 µM (inactive); in the assay on SNB-78, 91.8 µM (inactive); with KM-20L2, 53.8 µM (inactive); with DMS-273, 33.5 µM (inactive); in the assay with DMS-114, 28.1 µM (inactive); with XF498, > 100 µM (inactive). The values for the GI50 in the assay on LXFL 529 and with DLD-1 were 73.1 µM (inactive) and > 100 µM (inactive), respectively.

As to `CC(C)N(C(=O)C1(C)CC1)C(C)C`, the GI50 in the assay with HOP-18, in the assay on RXF 631, with SNB-78, in the assay on KM-20L2, in the assay on DMS-273 and in the assay with DMS-114 was > 100 µM (inactive) in each case. For the same compound, the GI50 in the assay on XF498, in the assay with LXFL 529 and in the assay with DLD-1 was > 100 µM (inactive) each time.

`N#CC(N)(C(=O)C(=O)NCCCNC(=O)C(=O)C(N)(C#N)c1ccc(Cl)cc1)c1ccc(Cl)cc1` (centres undefined): the GI50 in the assay on HOP-18, in the assay with RXF 631, with SNB-78, with KM-20L2, in the assay on DMS-273 and in the assay with DMS-114 was > 100 µM (inactive) in each case. The GI50 with XF498, in the assay on LXFL 529 and in the assay with DLD-1 was > 100 µM (inactive) throughout.

As to `COC(=O)CC(=O)NCC1=CCC(=O)CC1`, the GI50 with SNB-78, in the assay on DMS-273, with DMS-114, in the assay on XF498, in the assay with LXFL 529 and in the assay on DLD-1 was > 100 µM (inactive) throughout.

Take `CC(C)CN(CC(C)C)C(=O)C1CCCC[C@@H]1C(=O)O` (some centres undefined): the GI50 in the assay with HOP-18, in the assay with RXF 631, in the assay on SNB-78, with KM-20L2, in the assay with DMS-273 and in the assay on DMS-114 was > 100 µM (inactive) in each case. The GI50 with LXFL 529 and in the assay with DLD-1 was > 100 µM (inactive) in each case.

Turning to `O=C(COc1ccc(Cl)cc1)N1N=C(c2ccc(Cl)cc2)CC1(O)c1ccccc1` (centres undefined), the GI50 was 39.2 µM (inactive) in the assay on HOP-18; > 38.5 µM (inactive) with SNB-78; 15.4 µM (inactive) with KM-20L2; 15.9 µM (inactive) in the assay with DMS-273; 18.4 µM (inactive) with DMS-114; 27.8 µM (inactive) in the assay with XF498. Besides, the GI50 in the assay on LXFL 529 is 15 µM (inactive); with DLD-1, 13 µM (inactive).

With `O=C1C2=C(c3ccccc31)C(c1cccc(Cl)c1)NC(S)=N2` (centres undefined), the GI50 was > 100 µM (inactive) with KM-20L2; 80.9 µM (inactive) in the assay with DMS-273; > 100 µM (inactive) in the assay with DMS-114; > 100 µM (inactive) in the assay on XF498; > 100 µM (inactive) in the assay on LXFL 529; > 100 µM (inactive) in the assay with DLD-1.

On to `CC(C(=O)Oc1ccc2ccccc2c1-c1c(O)ccc2ccccc12)c1ccccc1` (centres undefined), for which the GI50 in the assay with RXF 631 is 17.2 µM (inactive); in the assay with SNB-78 it was 15.4 µM (inactive); in the assay with DMS-273, > 10 µM (inactive); in the assay on DMS-114, 12.3 µM (inactive); in the assay on XF498, 14.2 µM (inactive); with LXFL 529, 14.1 µM (inactive).

Take `CC1=C2C(=O)C3[C@@H](CCC4=CC(=O)CC[C@@]43C)C2CC[C@]12O[C@@H]1C[C@H](C)CN[C@H]1[C@H]2C` (some centres undefined): the GI50 in the assay with HOP-18 is 49.3 µM (inactive); in the assay on KM-20L2, 68.4 µM (inactive); in the assay on DMS-273 it was 17.7 µM (inactive); with DMS-114, 15.3 µM (inactive); with XF498 it was 12.6 µM (inactive); in the assay with LXFL 529 it was 34.5 µM (inactive). Also, in the assay with DLD-1, the GI50 is > 100 µM (inactive).

For `NS(=O)(=O)c1ccc(NC(=O)COC(=O)c2cccc3c(=O)c4ccccc4[nH]c23)cc1`, the GI50 in the assay with HOP-18 was 20.1 µM (inactive); with RXF 631, 33.1 µM (inactive); in the assay on SNB-78 it was 17.4 µM (inactive); in the assay with KM-20L2 it was > 100 µM (inactive); in the assay on DMS-273, 37.2 µM (inactive); in the assay on DMS-114 it was 18.9 µM (inactive). Moreover, the GI50 with LXFL 529 was 7.93 µM (inactive); in the assay with DLD-1, 45 µM (inactive).

As to `C[P+](C)(C)C`, the GI50 in the assay with HOP-18, with RXF 631, in the assay with SNB-78, in the assay on KM-20L2, in the assay on DMS-114 and with XF498 was > 100 µM (inactive) in each case. Moreover, the GI50 with LXFL 529 and with DLD-1 was > 100 µM (inactive) each time.

Take `CC1=C[C@H]2C[C@@]3(C)O[C@@H]([C@]4(C)CC[C@H]([C@@H](C)C(=O)O)OO4)CC3C(C)(C)[C@H]2CC1` (some centres undefined): the GI50 with SNB-78 was 1.08 µM (active); in the assay with KM-20L2, 2.17 µM (inactive); with DMS-273, 0.526 µM (active); in the assay with DMS-114, 1.56 µM (inactive); with XF498 it was 0.0573 µM (active); in the assay with LXFL 529, 0.612 µM (active). Moreover, in the assay with DLD-1, the GI50 is 0.916 µM (active).

For the compound `CC(=O)C1C(=O)NC(=O)C1=O` (centres undefined), the GI50 with HOP-18, in the assay on SNB-78, with KM-20L2, in the assay on DMS-273, in the assay with DMS-114 and in the assay with XF498 was > 100 µM (inactive) each time. Further, in the assay on LXFL 529, the GI50 is > 100 µM (inactive).

As to `COc1cc2c3c(c1OC)-c1c(ccc4c1OCO4)CC3(C#N)N(C(=O)c1ccccc1)CC2` (centres undefined), the GI50 was 49.4 µM (inactive) with RXF 631; 66.4 µM (inactive) in the assay with SNB-78; > 100 µM (inactive) in the assay on KM-20L2; 49.7 µM (inactive) in the assay on DMS-273; 45.5 µM (inactive) with DMS-114; 23 µM (inactive) in the assay on XF498. Moreover, the GI50 was 73.8 µM (inactive) in the assay on LXFL 529 and 52.2 µM (inactive) with DLD-1.

For `CC1=C(C(=O)Nc2ccc([N+](=O)[O-])cc2)C(c2ccco2)C(C(=O)Nc2ccc([N+](=O)[O-])cc2)=C(C)N1`, the GI50 is 35.8 µM (inactive) with RXF 631; 11.9 µM (inactive) with SNB-78; 17.4 µM (inactive) with KM-20L2; 5 µM (inactive) in the assay with DMS-114; 0.6 µM (active) with XF498; 6.75 µM (inactive) in the assay on LXFL 529. Besides, the GI50 with DLD-1 is 9.68 µM (inactive).

Take `CCCCCCCCCCCCCC(=O)OCC1OC(=O)C(O)C1O` (centres undefined): the GI50 with HOP-18, in the assay on KM-20L2, with DMS-114, with XF498, in the assay with LXFL 529 and in the assay with DLD-1 was > 100 µM (inactive) throughout.

On to `O=C1C=CC(=O)N1Nc1ccc([N+](=O)[O-])cc1[N+](=O)[O-]`, for which the GI50 is > 100 µM (inactive) in the assay on SNB-78; > 100 µM (inactive) with KM-20L2; > 100 µM (inactive) in the assay on DMS-273; > 100 µM (inactive) with DMS-114; > 44.5 µM (inactive) with LXFL 529; > 100 µM (inactive) in the assay on DLD-1.
